# From PubChem BioAssay AID1259411 (Chemical Carcinogenesis Research Information System (CCRIS), 2018)
# Activity calls are given as the source filed them. The rule behind the calls is not given here.
# Test system: rodent carcinogenicity bioassays, tumor incidence
# Assay: CCRIS carcinogenicity studies
# In short: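 NCI-built, expert-reviewed records of carcinogenicity and related test outcomes (mutagenicity, tumor promotion/inhibition) compiled from published and report sources, historical span 1985-2011, not updated.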
smiles,measurement,setting,value
[O]=[Cd],carcinogen call,"Species: HAMSTER, Strain/Sex: SYRIAN/MALE, Route: INHALATION, Dose: 0, 10 UG/M3 19 HR/D 5 D/WK FOR 65 WK FOR A TOTAL CADMIUM DOSE OF 0, 63 MG/M3 (STUDY DURATION: 113 WK), Dose: 0, 10 UG/M3 19 HR/D 5 D/WK FOR 65 WK FOR A TOTAL CADMIUM DOSE OF 0, 63 MG/M3 (STUDY DURATION: 113 WK)",inactive; negative
same,carcinogen call,"Species: HAMSTER, Strain/Sex: SYRIAN/MALE, Route: INHALATION, Dose: 0, 90 UG/M3 8 HR/D 5 D/WK FOR 65 WK FOR A TOTAL CADMIUM DOSE OF 0, 216 MG/M3 (STUDY DURATION: 113 WK), Dose: 0, 90 UG/M3 8 HR/D 5 D/WK FOR 65 WK FOR A TOTAL CADMIUM DOSE OF 0, 216 MG/M3 (STUDY DURATION: 113 WK)",inactive; negative
same,carcinogen call,"Species: HAMSTER, Strain/Sex: SYRIAN/MALE, Route: INHALATION, Dose: 0, 270 UG/M3 8 HR/D 5 D/WK FOR 53 WK FOR A TOTAL CADMIUM DOSE OF 0, 522 MG/M3 (STUDY DURATION: 70 WK), Dose: 0, 270 UG/M3 8 HR/D 5 D/WK FOR 53 WK FOR A TOTAL CADMIUM DOSE OF 0, 522 MG/M3 (STUDY DURATION: 70 WK)",inactive; negative
same,carcinogen call,"Species: RAT, Strain/Sex: FEMALE, Route: SUBCUTANEOUS, Dose: 25 MG ONCE, Tumor Site: Type of Lesion: INJECTION SITE: SARCOMA",active; positive
same,carcinogen call,"Species: RAT, Strain/Sex: FEMALE, Route: SUBCUTANEOUS, Dose: 25 MG, SINGLE DOSE, Tumor Site: Type of Lesion: INJECTION SITE",active; positive
same,carcinogen call,"Species: RAT, Strain/Sex: WISTAR/FEMALE, Route: INHALATION, Dose: 0, 30 UG/M3 8 HR/D,5D/WK FOR 18 MO (STUDY DURATION: 18 MO)",inactive; negative
same,carcinogen call,"Species: RAT, Strain/Sex: WISTAR/FEMALE, Route: INHALATION, Dose: 0, 30 UG/M3 CADMIUM OXIDE DUST 22 HR/D 7 D/WK FOR 18 MO (STUDY DURATION: 31 MO), Tumor Site: Type of Lesion: LUNG: TUMOR",active; positive
same,carcinogen call,"Species: RAT, Strain/Sex: WISTAR/FEMALE, Route: INHALATION, Dose: 0, 30 UG/M3 DUST 22 HR/D 7 D/WK FOR 18 MO (STUDY DURATION: 31 MO), Tumor Site: Type of Lesion: LUNG: ALVEOLAR/BRONCHIOLAR ADENOMA, ADENOCARCINOMA, SQUAMOUS CELL CARCINOMA",active; positive
same,carcinogen call,"Species: RAT, Strain/Sex: WISTAR/FEMALE, Route: INHALATION, Dose: 0, 30 UG/M3 OF CADMIUM OXIDE DUST 22 HR/D 7 D/WK FOR 18 MO (STUDY DURATION: 31 MO), Tumor Site: Type of Lesion: LUNG: ALVEOLAR/BRONCHIOLAR ADENOMA, ADENOCARCINOMA, SQUAMOUS CELL CARCINOMA",active; positive
same,carcinogen call,"Species: RAT, Strain/Sex: WISTAR/FEMALE, Route: INHALATION, Dose: 0, 90 UG/M3 CADMIUM OXIDE DUST 22 HR/D 7 D/WK FOR 4 MO (STUDY DURATION: 31 MO), Tumor Site: Type of Lesion: LUNG: TUMOR",active; positive
same,carcinogen call,"Species: RAT, Strain/Sex: WISTAR/FEMALE, Route: INHALATION, Dose: 0, 90 UG/M3 CADMIUM OXIDE DUST DISCONTINOUS EXPOSURE FOR 40 HR/WK FOR 6 MO (STUDY DURATION: 31 MO), Tumor Site: Type of Lesion: LUNG: TUMOR",active; positive
same,carcinogen call,"Species: RAT, Strain/Sex: WISTAR/FEMALE, Route: INHALATION, Dose: 0, 90 UG/M3 DUST 8 HR/D 5 D/WK FOR 6 MO (STUDY DURATION: 31 MO), Tumor Site: Type of Lesion: LUNG: ADENOCARCINOMA, SQUAMOUS CELL CARCINOMA",active; positive
same,carcinogen call,"Species: RAT, Strain/Sex: WISTAR/FEMALE, Route: INHALATION, Dose: 0, 90 UG/M3 DUST 22 HR/D 7 D/WK FOR 11 MO (STUDY DURATION: 31 MO), Tumor Site: Type of Lesion: LUNG: ALVEOLAR/BRONCHIOLAR ADENOMA, ADENOCARCINOMA, SQUAMOUS CELL CARCINOMA",active; positive
same,carcinogen call,"Species: RAT, Strain/Sex: WISTAR/FEMALE, Route: INHALATION, Dose: 0, 90 UG/M3 OF CADMIUM OXIDE DUST 22 HR/D 7 D/WK FOR 11 MO (STUDY DURATION: 31 MO), Tumor Site: Type of Lesion: LUNG: ALVEOLAR/BRONCHIOLAR ADENOMA, ADENOCARCINOMA, SQUAMOUS CELL CARCINOMA",active; positive
same,carcinogen call,"Species: RAT, Strain/Sex: WISTAR/FEMALE, Route: INHALATION, Dose: 0, 90 UG/M3 OF CADMIUM OXIDE DUST 40 HR/WK FOR 6 MO (STUDY DURATION: 31 MO)",inactive; negative
same,carcinogen call,"Species: RAT, Strain/Sex: WISTAR/MALE, Route: INHALATION, Dose: 0, 10 UG/M3 CADMIUM OXIDE FUME 22 HR/D 7 D/WK FOR 18 MO (STUDY DURATION: 31 MO)",inactive; negative
same,carcinogen call,"Species: RAT, Strain/Sex: WISTAR/MALE, Route: INHALATION, Dose: 0, 10 UG/M3 FUME 22 HR/D 7 D/WK FOR 18 MO (STUDY DURATION: 31 MO)",inactive; negative
same,carcinogen call,"Species: RAT, Strain/Sex: WISTAR/MALE, Route: INHALATION, Dose: 0, 10 UG/M3 OF CADMIUM OXIDE FUME 22 HR/D 7 D/WK FOR 18 MO (STUDY DURATION: 31 MO)",inactive; negative
same,carcinogen call,"Species: RAT, Strain/Sex: WISTAR/MALE, Route: INHALATION, Dose: 0, 30 UG/M3 CADMIUM OXIDE DUST 22 HR/D 7 D/WK FOR 18 MO (STUDY DURATION: 31 MO), Tumor Site: Type of Lesion: LUNG: ADENOMA OR ADENOCARCINOMA OR SQUAMOUS CELL TUMOR OR ADENOSQUAMOUS CARCINOMA",active; positive
same,carcinogen call,"Species: RAT, Strain/Sex: WISTAR/MALE, Route: INHALATION, Dose: 0, 30 UG/M3 CADMIUM OXIDE DUST 22 HR/D 7 D/WK FOR 18 MO (STUDY DURATION: 31 MO), Tumor Site: Type of Lesion: LUNG: TUMOR",active; positive
same,carcinogen call,"Species: RAT, Strain/Sex: WISTAR/MALE, Route: INHALATION, Dose: 0, 30 UG/M3 CADMIUM OXIDE DUST 22 HR/D 7 D/WK FOR 18 MO ADMINISTERED TO RATS MAINTAINED ON ZINC REDUCED (24 PPM) DIET (S, Tumor Site: Type of Lesion: LUNG: TUMOR",active; positive
same,carcinogen call,"Species: RAT, Strain/Sex: WISTAR/MALE, Route: INHALATION, Dose: 0, 30 UG/M3 CADMIUM OXIDE FUME 22 HR/D 7 D/WK FOR 18 MO (STUDY DURATION: 31 MO), Tumor Site: Type of Lesion: LUNG: TUMOR",active; positive
same,carcinogen call,"Species: RAT, Strain/Sex: WISTAR/MALE, Route: INHALATION, Dose: 0, 30 UG/M3 DUST 22 HR/D 7 D/WK FOR 18 MO (STUDY DURATION: 31 MO), Tumor Site: Type of Lesion: LUNG: ALVEOLAR/BRONCHIOLAR ADENOMA, ADENOCARCINOMA, SQUAMOUS CELL CARCINOMA",active; positive
same,carcinogen call,"Species: RAT, Strain/Sex: WISTAR/MALE, Route: INHALATION, Dose: 0, 30 UG/M3 DUST 22 HR/D 7 D/WK FOR 18 MO MAINTAINED ON ZN REDUCED DIET (24 PPM) FOR STUDY DURATION (STUDY DURATION: 29, Tumor Site: Type of Lesion: LUNG: ALVEOLAR/BRONCHIOLAR ADENOMA, ADENOCARCINOMA, SQUAMOUS CELL CARCINOMA",active; positive
same,carcinogen call,"Species: RAT, Strain/Sex: WISTAR/MALE, Route: INHALATION, Dose: 0, 30 UG/M3 FUME 22 HR/D 7 D/WK FOR 18 MO (STUDY DURATION: 31 MO), Tumor Site: Type of Lesion: LUNG: ALVEOLAR/BRONCHIOLAR ADENOMA, ADENOCARCINOMA",active; positive
same,carcinogen call,"Species: RAT, Strain/Sex: WISTAR/MALE, Route: INHALATION, Dose: 0, 30 UG/M3 OF CADMIUM OXIDE DUST 22 HR/D 7 D/WK FOR 18 MO (STUDY DURATION: 29 MO), Tumor Site: Type of Lesion: LUNG: ALVEOLAR/BRONCHIOLAR ADENOMA, ADENOCARCINOMA",active; positive
same,carcinogen call,"Species: RAT, Strain/Sex: WISTAR/MALE, Route: INHALATION, Dose: 0, 30 UG/M3 OF CADMIUM OXIDE DUST 22 HR/D 7 D/WK FOR 18 MO (STUDY DURATION: 31 MO), Tumor Site: Type of Lesion: LUNG: ALVEOLAR/BRONCHIOLAR ADENOMA, ADENOCARCINOMA, SQUAMOUS CELL CARCINOMA",active; positive
same,carcinogen call,"Species: RAT, Strain/Sex: WISTAR/MALE, Route: INHALATION, Dose: 0, 30 UG/M3 OF CADMIUM OXIDE FUME 22 HR/D 7 D/WK FOR 18 MO (STUDY DURATION: 31 MO)",inactive; negative
same,carcinogen call,"Species: RAT, Strain/Sex: WISTAR/MALE, Route: INHALATION, Dose: 0, 90 UG/M3, 8 HR/D, 5D/WK FOR 7.1 MO (STUDY DURATION: 7.1 MO)",inactive; negative
same,carcinogen call,"Species: RAT, Strain/Sex: WISTAR/MALE, Route: INHALATION, Dose: 0, 90 UG/M3 CADMIUM OXIDE DUST 22 HR/D 7 D/WK FOR 7 MO (STUDY DURATION: 31 MO), Tumor Site: Type of Lesion: LUNG: ADENOMA OR ADENOCARCINOMA OR SQUAMOUS CELL TUMOR",active; positive
same,carcinogen call,"Species: RAT, Strain/Sex: WISTAR/MALE, Route: INHALATION, Dose: 0, 90 UG/M3 CADMIUM OXIDE DUST 22 HR/D 7 D/WK FOR 7 MO (STUDY DURATION: 31 MO), Tumor Site: Type of Lesion: LUNG: TUMOR",active; positive
same,carcinogen call,"Species: RAT, Strain/Sex: WISTAR/MALE, Route: INHALATION, Dose: 0, 90 UG/M3 CADMIUM OXIDE DUST DISCONTINOUS EXPOSURE FOR 40 HR/WK FOR 6 MO (STUDY DURATION: 31 MO), Tumor Site: Type of Lesion: LUNG: TUMOR",active; positive
same,carcinogen call,"Species: RAT, Strain/Sex: WISTAR/MALE, Route: INHALATION, Dose: 0, 90 UG/M3 DUST 8 HR/D 5 D/WK FOR 6 MO (STUDY DURATION: 31 MO), Tumor Site: Type of Lesion: LUNG: ALVEOLAR/BRONCHIOLAR ADENOMA, ADENOCARCINOMA, SQUAMOUS CELL CARCINOMA",active; positive
same,carcinogen call,"Species: RAT, Strain/Sex: WISTAR/MALE, Route: INHALATION, Dose: 0, 90 UG/M3 DUST 22 HR/D 7 D/WK FOR 7 MO (STUDY DURATION: 31 MO), Tumor Site: Type of Lesion: LUNG: ALVEOLAR/BRONCHIOLAR ADENOMA, ADENOCARCINOMA",active; positive
same,carcinogen call,"Species: RAT, Strain/Sex: WISTAR/MALE, Route: INHALATION, Dose: 0, 90 UG/M3 OF CADMIUM OXIDE DUST 22 HR/D 7 D/WK FOR 7 MO (STUDY DURATION: 31 MO), Tumor Site: Type of Lesion: LUNG: ALVEOLAR/BRONCHIOLAR ADENOMA, ADENOCARCINOMA",active; positive
same,carcinogen call,"Species: RAT, Strain/Sex: WISTAR/MALE, Route: INHALATION, Dose: 0, 90 UG/M3 OF CADMIUM OXIDE DUST 40 HR/WK FOR 6 MO (STUDY DURATION: 31 MO)",inactive; negative
